Source: US20260001914A1, “MACROCYCLIC PEPTIDES TARGETING KRAS” (Merck Sharp & Dohme LLC, priority 2022, published 2026)
*1 amine or outer side, *2 acyl side, *3 side chain or, on linkers, in order; H or OH if unused. Where a SMILES comes first, the peptide text is derived from it. Bridges are numbered along the chain shown (N, C = ends). [ ]: non-standard residue; d: D form. Phe(4-guanidino) = N=C(N)Nc1ccc(C[C@H](N)C(=O)O)cc1; Ala(pyrimidin-5-yl) = N[C@@H](Cc1cncnc1)C(=O)O; Phe(3-COOH) = N[C@@H](Cc1cccc(C(=O)O)c1)C(=O)O; NMe3Pal(5-F) = CN[C@@H](Cc1cncc(F)c1)C(=O)O; X3 = CN([C@@H](Cc1cncnc1)C(=O)[*:2])[*:1]; X46 = O=C([C@H](Cc1cccnc1F)N[*:1])[*:2]; Phe(4-Me) = Cc1ccc(C[C@H](N)C(=O)O)cc1; 1Nal = N[C@@H](Cc1cccc2ccccc12)C(=O)O; NHCH2CH2SCH2CO = O=C(CSCCN[*:1])[*:2]; Phe(2-F) = N[C@@H](Cc1ccccc1F)C(=O)O; NMe3Pal = CN[C@@H](Cc1cccnc1)C(=O)O; X1 = O=C(C12CC(CN[*:1])(C1)C2)[*:2]; X38 = NC(=O)CCCN(CC(=O)[*:2])[*:1]; NMeOrn(Me) = CNCCC[C@H](NC)C(=O)O; Ala(cPr) = N[C@@H](CC1CC1)C(=O)O; NMeF = CN[C@@H](Cc1ccccc1)C(=O)O; PhLac = O=C(O)[C@@H](O)Cc1ccccc1; 3Pal = N[C@@H](Cc1cccnc1)C(=O)O; Ahp(2) = CCCCC[C@H](N)C(=O)O; Ala(CN) = N#CC[C@H](N)C(=O)O; Cba = N[C@@H](CC1CCC1)C(=O)O; hLeu = CC(C)CC[C@H](N)C(=O)O; NMeS = CN[C@@H](CO)C(=O)O; αMeC = C[C@](N)(CS)C(=O)O; NMeA = CN[C@@H](C)C(=O)O; Nle = CCCC[C@H](N)C(=O)O

Molecular target: phosphorylation levels of ERK1/2 in AsPC-1 (homozygous KRAS-G12D) cells (Homo sapiens, UniProt P01116, G12D)
Sequence (P01116 1-186 G12D): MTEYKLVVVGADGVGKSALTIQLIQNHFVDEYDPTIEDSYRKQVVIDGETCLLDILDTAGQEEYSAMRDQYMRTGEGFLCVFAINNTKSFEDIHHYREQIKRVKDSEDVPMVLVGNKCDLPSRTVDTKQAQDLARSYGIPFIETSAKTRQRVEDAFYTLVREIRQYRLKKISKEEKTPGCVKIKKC
Experiment: Cellular phospho-ERK assay in AsPC-1 cells (Alpha Screen), assay medium without fetal bovine serum;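 note: signal taken as phospho-ERK over total ERK per well, both detected in one multiplex bead assay, EC50 from four-parameter logistic fit of dose-response curves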
Type: cell-based
Conditions: phospho-ERK AlphaScreen, 18 h

SMILES	EC50
CCCCC[C@@H]1NC(=O)[C@H](Cc2ccc(OC)cc2)NC(=O)[C@H](CC2CCC2)NC(=O)[C@H](Cc2cncnc2)NC(=O)[C@H](CCCNC(=N)N)NC(=O)[C@H](Cc2ccccc2)NC(=O)CSC[C@@](C)(C(N)=O)NC(=O)[C@H](Cc2ccccc2)N(C)C1=O [compound 367, cyclo(F-R-PyrimAla-cBuA-TyrOMe-Ahp-NMeF-aMeCl-ClAc)] ({CH2CO}-FR[Ala(pyrimidin-5-yl)][Cba]Y(Me)[Ahp(2)][NMeF][αMeC]-NH2; thioether N-8)	> 50.8 µM
CCCCC[C@@H]1NC(=O)[C@H](Cc2ccc(OC)cc2)NC(=O)[C@H](CC2CCC2)NC(=O)[C@H](Cc2cccnc2)NC(=O)[C@H](CCCNC(=N)N)NC(=O)[C@H](Cc2ccccc2)NC(=O)CSC[C@@](C)(C(N)=O)NC(=O)[C@H](Cc2cncnc2)N(C)C1=O [compound 376, cyclo(F-R-3Pal-cBuA-TyrOMe-Ahp-NMeAlaPyrim-aMeCl-ClAc)] ({CH2CO}-FR[3Pal][Cba]Y(Me)[Ahp(2)][X3][αMeC]-NH2; thioether N-8)	> 50.8 µM
CCCC[C@@H]1NC(=O)[C@H](Cc2cccnc2)NC(=O)[C@H](C)N(C)C(=O)[C@H](Cc2ccccc2)NC(=O)CSC[C@@](C)(C(N)=O)NC(=O)[C@H](Cc2ccccc2)N(C)C(=O)[C@H](CCCC)NC(=O)[C@H](Cc2ccccc2F)NC1=O [compound 159, cyclo(F-NMeA-3Pal-Nle-Phe2F-Nle-NMeF-aMeCl-ClAc)] ({CH2CO}-F[NMeA][3Pal][Nle][Phe(2-F)][Nle][NMeF][αMeC]-NH2; thioether N-8)	21 µM
CCCC[C@@H]1NC(=O)[C@H](Cc2cccnc2)NC(=O)[C@H](C)N(C)C(=O)[C@H](Cc2ccc(C)cc2)NC(=O)C23CC(CNC(=O)[C@H](Cc4cccnc4)N(C)C(=O)[C@H](CCCC)NC(=O)[C@H](Cc4ccccc4F)NC1=O)(C2)C3 [compound 170, cyclo(Phe4Me-NMeA-3Pal-Nle-Phe2F-Nle-NMe3Pal-amBCP)] (cyclo([3Pal][Nle][Phe(2-F)][Nle][NMe3Pal][X1][Phe(4-Me)][NMeA]))	37.2 µM
CCCC[C@@H]1NC(=O)[C@H](Cc2cccnc2)NC(=O)[C@H](CC#N)NC(=O)[C@H](Cc2ccccc2)OC(=O)C23CC(CNC(=O)[C@H](Cc4cccnc4)N(C)C(=O)[C@H](CCCC)NC(=O)[C@H](Cc4ccccc4F)NC1=O)(C2)C3 [compound 252, cyclo(FLac-AlaCN-3Pal-Nle-Phe2F-Nle-NMe3Pal-amBCP)] (cyclo([3Pal][Nle][Phe(2-F)][Nle][NMe3Pal][X1][PhLac][Ala(CN)]))	> 50.8 µM
CCCC[C@@H]1NC(=O)[C@H](Cc2cccnc2)NC(=O)[C@H](CCCNC(=N)N)NC(=O)[C@H](Cc2ccccc2)NC(=O)CSC[C@@](C)(C(N)=O)NC(=O)[C@H](Cc2ccccc2)N(C)C(=O)[C@H](CCCC)NC(=O)[C@H](Cc2ccccc2F)NC1=O [compound 160, cyclo(F-R-3Pal-Nle-Phe2F-Nle-NMeF-aMeCl-ClAc)] ({CH2CO}-FR[3Pal][Nle][Phe(2-F)][Nle][NMeF][αMeC]-NH2; thioether N-8)	> 50.8 µM
C[C@H]1C(=O)N[C@@H](Cc2cncnc2)C(=O)N[C@@H](CC2CC2)C(=O)N[C@@H](Cc2ccccc2F)C(=O)NC2CC/C=C\CC[C@@H](C(=O)NCC34CC(C3)(C4)C(=O)O[C@@H](Cc3ccccc3)C(=O)N1C)N(C)C2=O [SEQ ID NO: 182, cyclo(FLac-NMeA-PyrimAla-cPrA-Phe2F-Hag-NMeHag-amBCP)]	41.2 µM
CCCCC[C@@H]1NC(=O)[C@H](Cc2ccc(OC)cc2)NC(=O)[C@H](CC2CCC2)NC(=O)[C@H](Cc2ccc(NC(=N)N)cc2)NC(=O)[C@H](CCCNC)N(C)C(=O)[C@H](Cc2ccccc2)NC(=O)CSC[C@@](C)(C(N)=O)NC(=O)[C@H](Cc2ccccc2)N(C)C1=O [compound 385, cyclo(F-NMeOrnMe-Phe4Gn-cBuA-TyrOMe-Ahp-NMeF-aMeCl-ClAc)] ({CH2CO}-F[NMeOrn(Me)][Phe(4-guanidino)][Cba]Y(Me)[Ahp(2)][NMeF][αMeC]-NH2; thioether N-8)	> 50.8 µM
CCCC[C@@H]1NC(=O)[C@H](Cc2ccccc2F)NC(=O)C(CC2CC(F)(F)C2)NC(=O)[C@H](Cc2cncnc2)NC(=O)[C@H](C)N(C)C(=O)[C@H](Cc2ccccc2)OC(=O)C23CC(CNC(=O)[C@H](Cc4cccnc4)N(C)C1=O)(C2)C3 (single isomer, unassigned) [compound 123, cyclo(FLac-NMeA-PyrimAla-rF2Cba-Phe2F-Nle-NMe3Pal-amBCP)]	> 50.8 µM
CCCC[C@@H]1NC(=O)[C@H](CCCCN)NC(=O)[C@H](CCCNC(=N)N)NC(=O)[C@H](Cc2cccc3ccccc23)NC(=O)CSCCNC(=O)[C@H](Cc2ccccc2)N(C)C(=O)[C@H](CCCC)NC(=O)[C@H](Cc2cccc(C(=O)O)c2)NC1=O [compound 197, cyclo(1Nal-R-K-Nle-Phe3COOH-Nle-NMeF-Cysteamine)-ClAc] (cyclo([1Nal]RK[Nle][Phe(3-COOH)][Nle][NMeF][NHCH2CH2SCH2CO]))	> 50.8 µM
CC(C)CC[C@@H]1NC(=O)[C@H](Cc2cccnc2F)NC(=O)[C@H](CC2CC2)NC(=O)[C@H](Cc2cncnc2)NC(=O)[C@H](C)N(C)C(=O)[C@H](Cc2ccccc2)OC(=O)C23CC(CNC(=O)[C@H](Cc4ccccc4)N(C)C1=O)(C2)C3 [compound 215, cyclo(FLac-NMeA-PyrimAla-cPrA-3Pal2F-hL-NMeF-amBCP)] (cyclo([Ala(cPr)][X46][hLeu][NMeF][X1][PhLac][NMeA][Ala(pyrimidin-5-yl)]))	4.18 µM
CCCC[C@@H]1NC(=O)[C@H](Cc2ccccc2F)NC(=O)[C@H](CC(C)C)NC(=O)[C@H](Cc2cncnc2)NC(=O)[C@H](C)N(C)C(=O)[C@H](Cc2ccccc2)OC(=O)C23CC(CNC(=O)[C@H](Cc4cccnc4)N(C)C1=O)(C2)C3 [compound 129, cyclo(FLac-NMeA-PyrimAla-L-Phe2F-Nle-NMe3Pal-amBCP)] (cyclo([PhLac][NMeA][Ala(pyrimidin-5-yl)]L[Phe(2-F)][Nle][NMe3Pal][X1]))	> 50.8 µM
CC(C)CC[C@@H]1NC(=O)[C@H](Cc2ccccc2F)NC(=O)[C@H](CC2CC2)NC(=O)[C@H](Cc2cccnc2)NC(=O)[C@H](C)N(C)C(=O)[C@H](Cc2ccccc2)OC(=O)C23CC(CNC(=O)[C@H](Cc4cncc(F)c4)N(C)C1=O)(C2)C3 [compound 283, cyclo(FLac-NMeA-3Pal-cPrA-Phe2F-hL-NMe3Pal5F-amBCP)] (cyclo([3Pal][Ala(cPr)][Phe(2-F)][hLeu][NMe3Pal(5-F)][X1][PhLac][NMeA]))	1.27 µM
CCCC[C@@H]1NC(=O)[C@H](Cc2cccnc2)NC(=O)[C@H](CO)N(C)C(=O)[C@H](Cc2ccccc2)OC(=O)C23CC(CNC(=O)[C@H](Cc4cccnc4)N(C)C(=O)[C@H](CCCC)NC(=O)[C@H](Cc4ccccc4F)NC1=O)(C2)C3 [compound 118, cyclo(FLac-NMeS-3Pal-Nle-Phe2F-Nle-NMe3Pal-amBCP)] (cyclo([3Pal][Nle][Phe(2-F)][Nle][NMe3Pal][X1][PhLac][NMeS]))	> 50.8 µM
CCCCC[C@@H]1NC(=O)[C@H](Cc2ccc(OC)cc2)NC(=O)[C@H](CC2CCC2)NC(=O)[C@H](Cc2ccc(NC(=N)N)cc2)NC(=O)CN(CCCC(N)=O)C(=O)[C@H](Cc2ccccc2)NC(=O)CSC[C@@](C)(C(N)=O)NC(=O)[C@H](Cc2ccccc2)N(C)C1=O [compound 386, cyclo(F-Cmpg-Phe4Gn-cBuA-TyrOMe-Abp-NMeF-aMeCl-ClAc)] ({CH2CO}-F[X38][Phe(4-guanidino)][Cba]Y(Me)[Ahp(2)][NMeF][αMeC]-NH2; thioether N-8)	> 50.8 µM
